Literature values as cited in publication PMC11949389 (Polish Journal of Microbiology, 2025).
Values after ≈ are worked out from the molar mass of the structure shown. Like-named read-outs stand apart in the source and are kept apart here.

What was measured:
Candida albicans = conditions: Candida albicans; ref Sharifzadeh et al. 2019; Iraji et al. 2020; Shaban et al. 2020; Stringaro et al. 2022; Biernasiuk et al. 2022
Candida parapsilosis = conditions: ref Iraji et al. 2020, Biernasiuk et al. 2022
Candida tropicalis = conditions: Candida tropicalis; ref Iraji et al. 2020; Stringaro et al. 2022
Candida krusei = conditions: Candida krusei; ref Sharifzadeh et al. 2019; Iraji et al. 2020; Biernasiuk et al. 2022; Stringaro et al. 2022
Candida dubliniensis = conditions: ref Iraji et al. 2020
Candida glabrata = conditions: Candida glabrata; ref Sharifzadeh et al. 2019; Iraji et al. 2020; Biernasiuk et al. 2022; Stringaro et al. 2022
Acinetobacter baumannii = conditions: ref Sayout et al. 2020
Klebsiella pneumoniae = conditions: ref Sayout et al. 2020, de Souza et al. 2021, Kwiatkowski et al. 2022
Escherichia coli = conditions: Escherichia coli; ref Owen et al. 2019; Sayout et al. 2020; Noumi et al. 2023
Staphylococcus aureus = conditions: for MIC/Sensitivity: Staphylococcus aureus, ref Kwiatkowski et al. 2020, Sayout et al. 2020, Sousa Silveira et al. 2020, Macêdo et al. 2022, Noumi et al. 2023, Sharma et al. 2023; for tetracycline MIC: S. aureus, ref Sousa Silveira et al. (2020)
Enterobacter cloacae = conditions: ref Sayout et al. 2020
[1] = system: Vibrio anguillarum, and Vibrio harveyi; conditions: ref Rossi et al. (2021)
Enterobacter aerogenes = conditions: ref Sayout et al. 2020
Salmonella spp. = conditions: ref Sayout et al. 2020
Klebsiella oxytoca = conditions: ref Sayout et al. 2020

| Molecule | MIC/Sensitivity (Candida albicans) | MIC/Sensitivity (Candida parapsilosis) | MIC/Sensitivity (Candida tropicalis) | MIC/Sensitivity (Candida krusei) | MIC/Sensitivity (Candida dubliniensis) | MIC/Sensitivity (Candida glabrata) | other results |
| --- | --- | --- | --- | --- | --- | --- | --- |
| CC1CC[C@H](C(C)C)[C@@H](O)C1 (single isomer, unassigned; (+)) [(+)-Menthol] | 221.8892 to 7125.456 mg/mL | 53.1284 to 890.682 mg/mL | 100.0064 to 445.341 mg/mL | 100.0064 to 445.341 mg/mL | 53.1284 to 3562.728 mg/mL | 26.5642 to 445.341 mg/mL |  |
| CC(C)=CCCC(C)CCO (single isomer, unassigned; (-)) [(–)-Citronellol] | 49.36 to 1665.9 mg/mL | 49.36 to 416.475 mg/mL | 24.68 to 100.2625 mg/mL | 100.2625 to 1665.9 mg/mL | 24.68 to 208.2375 mg/mL | 49.36 to 208.2375 mg/mL |  |
| CC(C)=CCC[C@@H](C)CCO [(+)-Citronellol] | 49.36 to 1665.9 mg/mL | 49.36 to 416.475 mg/mL | 24.68 to 100.2625 mg/mL | 100.2625 to 832.95 mg/mL | 24.68 to 208.2375 mg/mL | 49.36 to 208.2375 mg/mL |  |
| C=C1C2CCC(C2)C1(C)C (stereo not drawn) [Camphene] |  |  |  |  |  |  | MIC/Sensitivity (Acinetobacter baumannii): 0.02 mg/mL (≈ 0.147 mM); MIC/Sensitivity (Klebsiella pneumoniae): 0.03 mg/mL (≈ 0.22 mM); MIC/Sensitivity (Escherichia coli): 0.015 mg/mL (≈ 0.11 mM) |
| CC(C)[C@@H]1CC[C@@H](C)CC1=O [Menthone] |  |  |  |  |  |  | MIC/Sensitivity (Staphylococcus aureus): 27.9 mg/mL (≈ 181 mM) |
| C=CC(=C)CCC=C(C)C [Myrcene] |  |  |  |  |  |  | MIC/Sensitivity (Klebsiella pneumoniae): 0.0155 mg/mL (≈ 0.114 mM); MIC/Sensitivity (Escherichia coli): 0.00194 mg/mL (≈ 0.0142 mM); MIC/Sensitivity (Enterobacter cloacae): 0.00775 mg/mL (≈ 0.0569 mM) |
| CC(C)[C@]12CC(=O)[C@H](C)[C@H]1C2 [Thujone] | 459.7346 to 7355.7536 mg/mL | 3677.8768 to 14711.5072 mg/mL | 919.4692 to 7355.7536 mg/mL | 919.4692 to 7355.7536 mg/mL | 919.4692 to 7355.7536 mg/mL | 1838.9384 to 14711.5072 mg/mL |  |
| CC1CCC(C(C)C)C(O)C1 (stereo not drawn) [menthol] |  |  |  |  |  |  | activity at the tested concentrations [1]: no activity |
| CN(C)[C@@H]1C(O)=C(C(N)=O)C(=O)[C@@]2(O)C(O)=C3C(=O)c4c(O)cccc4[C@@](C)(O)[C@H]3C[C@@H]12 [tetracycline, reference compound] |  |  |  |  |  |  | tetracycline MIC (Staphylococcus aureus; before combination): 0.114 mg/mL; tetracycline MIC (Staphylococcus aureus; combined with thymol): 0.101 mg/mL |
| CC1=CCC2CC1C2(C)C (stereo not drawn) [α-Pinene] |  |  |  |  |  |  | MIC/Sensitivity (Acinetobacter baumannii): 0.01188 mg/mL (≈ 0.0872 mM); MIC/Sensitivity (Klebsiella pneumoniae): 0.02375 mg/mL (≈ 0.174 mM); MIC/Sensitivity (Escherichia coli): 0.01188 mg/mL (≈ 0.0872 mM); activity at the tested concentrations [1]: no activity; MIC/Sensitivity (Enterobacter cloacae): 0.01188 mg/mL (≈ 0.0872 mM); MIC/Sensitivity (Staphylococcus aureus): 0.01188 mg/mL (≈ 0.0872 mM) |
| CC1=CCC(C(C)C)=CC1 [γ-Terpinene] |  |  |  |  |  |  | MIC/Sensitivity (Acinetobacter baumannii): 0.00488 mg/mL (≈ 0.0358 mM); MIC/Sensitivity (Klebsiella pneumoniae): 0.00488 mg/mL (≈ 0.0358 mM); MIC/Sensitivity (Enterobacter aerogenes): 0.00488 mg/mL (≈ 0.0358 mM); MIC/Sensitivity (Enterobacter cloacae): 0.0065 mg/mL (≈ 0.0477 mM); MIC/Sensitivity (Campylobacter jejuni; Campylobacter jejuni, ref Šimunović et al. 2020): 1 mg/mL (≈ 7.34 mM); MIC (Campylobacter jejuni; ref Šimunović et al. (2020)): 1,000 μg/ml; MIC/Sensitivity (Salmonella spp.): 0.0065 mg/mL (≈ 0.0477 mM); MIC/Sensitivity (Klebsiella oxytoca): 0.00488 mg/mL (≈ 0.0358 mM) |
| (+)-α-Pinene | 51.7674 to 1716.498 mg/mL | 51.7674 to 429.1245 mg/mL | 429.1245 to 1716.498 mg/mL | 51.7674 to 858.249 mg/mL | 103.5348 to 1716.498 mg/mL | 51.7674 to 1716.498 mg/mL |  |

More lines, main results first:

| MIC/Sensitivity (Candida albicans) | MIC/Sensitivity (Candida parapsilosis) | MIC/Sensitivity (Candida tropicalis) | MIC/Sensitivity (Candida krusei) | MIC/Sensitivity (Candida dubliniensis) | MIC/Sensitivity (Candida glabrata) | Molecule | other results |
| --- | --- | --- | --- | --- | --- | --- | --- |
| 858.249 to 54927.936 mg/mL | 429.1245 to 1716.498 mg/mL | 6865.992 to 27463.968 mg/mL | 858.249 to 1716.498 mg/mL | 858.249 to 27463.968 mg/mL | 858.249 to 54927.936 mg/mL | CC1=CCC2CC1C2(C)C (stereo not drawn) [(–)-α-Pinene] |  |
| 8.1738 to 13731.984 mg/mL | 50.4051 to 213.8811 mg/mL | 213.8811 to 1716.498 mg/mL | 8.1738 to 429.1245 mg/mL | 12.2607 to 1716.498 mg/mL | 50.4051 to 3432.996 mg/mL | (–)-Limonene |  |
